The source of these data is PMC6107127, “Characteristics of the mitochondrial and cellular uptake of MPP^+, as probed by the fluorescent mimic, 4'I-MPP^+” (PLoS ONE, 2018).

Data set [1] has as its system MN9D cells. Description: Cellular uptake of MPP+ and 4'I-MPP+ (HPLC-UV / fluorescence). The class given is cell-based, mouse. The note with it: 100 μM toxin, 60 min, 37 °C, KRB-HEPES. Here is the method: (§1) Cells were seeded into 12-well plates at 0.25 x 10^6 cells/well and grown 2–3 days to about 70–80% confluency. The media was removed and a solution containing 100 μM MPP^+ or 4'I-MPP^+ in warm KRB-HEPES (or without Ca^2+ and with 1.4 mM EGTA) was added to each well and incubated at 37 °C for the desired period of time (see Figure legends for further details). After the incubations, the media were removed and cells were washed with ice-cold KRB-HEPES. Washed cells were suspended in 1.0 mL of ice-cold KRB-HEPES and 50 μL aliquots were withdrawn for protein determination. The remaining cell suspensions were centrifuged at 5000 x g at 4 °C for 5 min and the cell pellets were treated with 75 μL of 0.1 M HClO4. The coagulated proteins were pelleted by centrifugation at 13,200 x g at 4 °C for 8 min and the MPP^+ or 4'I-MPP^+ contents of the supernatants were determined by C18-reversed-phase HPLC-UV (HPLC-UV) as previously described using standard curves constructed from authentic standards. The standard curves for HPLC-UV quantifications were constructed using authentic samples of MPP^+ and 4'I-MPP^+ under the same HPLC-UV separation conditions (S1 Fig).
(§2) To quantify 4'I-MPP^+ uptake by fluorescence, MN9D or HepG2 cells grown in glass bottomed plates, washed, and reconstituted with KRB-HEPES (1.0 mL), pH 7.4, and mounted on the stage of a Nikon ECLIPSE Ti-S inverted fluorescence microscope. […]

For data set [2], the system named is HepG2 cells. The description is as above. The data set is classed as cell-based, human. Particulars: 100 μM toxin, 40 min. Here is the method:
as §1, §2

In data set [3] the test system is rat brain mitochondrial complex-I (NADH: ubiquinone oxidoreductase). The data set can be described thus: Ubiquinone dependent NADH oxidation (complex-I inhibition). The class given is biochemical. Particulars: 200 μM. Here is the method: Isolated rat brain mitochondria were lysed by freeze-thawing in hypotonic media containing 25 mM K3PO4 and 5 mM MgCl2, pH 7.2 [22]. The complex-I (i.e. NADH: ubiquinone oxidoreductase) activity of mitochondrial membrane fragments were determined according to the procedure of Birch-Machin and Turnbull. Briefly, mitochondrial membranes (50 μg protein) were incubated with 130 μM NADH (final concentration) and Antimycine A (2 μg/mL) in a 1.0 mL assay solution containing 25 mM K3PO4, 5 mM MgCl2, 2 mM KCN, 2.5 mg/mL bovine serum albumin, pH 7.2, for 2 min at 37 °C with or without rotenone, MPP^+ or 4'I-MPP^+ (for further details see the corresponding figure legends). The complex-I mediated ubiquinone dependent NADH oxidation was initiated by adding ubiquinone-1 to a final concentration of 65 μM and the initial rates of the reactions were monitored by following the decrease in absorbance at 340 nm with respect to 425 nm reference wavelength for 5 min.

Data set [4] has as its system MN9D cells. Description: Intracellular ATP levels. The data set is classed as cell-based, mouse. Particulars: 100 μM, 6 h at 37 °C. The protocol: (§3) Cells grown in 12-well plates were treated with 100 μM MPP^+ or 4'I-MPP^+ in KRB-HEPES for 6 h at 37 °C. After the treatments, cells were suspended in 1 mL of ice-cold KRB-HEPES and 50 μL samples were withdrawn for protein quantification. The remaining cell suspensions were centrifuged for 3 min at 3,500 x g at 4 °C and the cell pellets were treated with 1 mL of lysis buffer (0.1 M Tris, 1% Triton X-100, pH 7.5) for 2 min and centrifuged at 3,500 x g for 3 min to remove the cell debris. The ATP contents of the supernatants were measured using a fluorometric ATP assay kit (BioVision, Milpitas CA, USA) following the manufacture’s guidelines. All ATP levels were normalized to the protein content of each sample.

In data set [5] the test system is HepG2 cells. Description: Intracellular ATP levels. The class given is cell-based, human. Particulars: 100 μM, 6 h at 37 °C. The protocol: as §3
The subject of data set [6] is MN9D cells. Description: Intracellular ROS (DCFH-DA). The data set is classed as cell-based, mouse. Particulars: 100 μM, 1 h at 37 °C. The protocol:
Cells grown in 12-well plates were incubated with 10 μM DCFH-DA in KRB-HEPES for 1 h. […] After the incubations, cells were washed, harvested, solubilized with 0.1 M Tris buffer (pH 7.5) containing 1% Triton X-100, and cell debris were removed by centrifugation at 13,200 x g for 8 min at 4 °C. The content of ROS-oxidized DCFH product, 2',7'-dichlorofluorescein (DCF) in the supernatants were quantified by fluorescence (Ex/Em 488/524 nm). The data were normalized to the protein contents of individual samples. ROS productions in DCFH-DA (50 μM) loaded 250 μM 4'I-MPP^+ treated (4 h) live MN9D cells were visualized by confocal fluorescence microscopy at Ex/Em 488/524 nm using a Leica TCS SP5II microscope.

Data set [7] has as its system isolated MN9D cell mitochondria. The data set can be described thus: Uptake into isolated MN9D cell mitochondria. More on the design: species or system mouse. The note with it: 400 μM, 45 min at 37 °C. Here is the method:
Intact mitochondria were isolated from MN9D cells according to the published procedure of Frezza et al.. The isolated intact mitochondrial preparations were suspended in KCl buffer and aliquots (5 μL) were withdrawn for protein determination. Desired amounts of mitochondrial suspensions were incubated with 400 μM MPP^+ or 4'I-MPP^+ in KCl buffer for 45 min at 37 °C. After the incubation, incubates were centrifuged at 7,000 x g at 4 °C for 10 min and the mitochondrial pellets were treated with 75 μL of 0.1 M HClO4.

For a further data set, the system named is MN9D or HepG2 cells. The data set can be described thus: Mitochondrial membrane potential depolarization (TMRM). The data set is classed as cell-based. Particulars: 100 μM. The protocol: MN9D or HepG2 cells grown in glass-bottomed plates were treated with 50 nM TMRM (AnaSpec, Fremont CA, USA) in KRB-HEPES for 45 min in the dark. After mounting on the stage of a Nikon ECLIPSE Ti-S inverted fluorescence microscope, 15–20 ROIs with uniform fluorescence were selected and TMRM fluorescence at Ex/Em at 543/573 nm was recorded at 5 sec time intervals for 3 min. Then, MPP^+ or 4'I-MPP^+ was added to a final concentration of 500 or 100 μM, respectively and TMRM fluorescence measurements were continued for an additional 40 min for MPP^+ and 15 min for 4'I-MPP^+ at 15 sec time intervals. The background fluorescence was subtracted from the ROI fluorescence and averages of corrected data were used to estimate the magnitude of the mitochondrial membrane potential.

A short description of data set [8]: Solubility in incubation media. The data set is classed as physicochemical. The note with it: concentrations above 200 μM.

As for `C[n+]1ccc(-c2ccc(I)cc2)cc1` [4'I-MPP^+, 1-methyl-4-(4'-iodophenyl)pyridinium], the “cellular uptake in 1 h” value in the data set on MN9D cells [1] is 1.2 nmoles/mg of protein. In addition, the “cellular uptake in 40 min” value in the data set with HepG2 cells [2] is reported as 1.4 nmoles/mg of protein. Also, the “inhibition of the complex-I activity” value in [3] is listed as 46%. In addition, the “effect on intracellular ATP levels” value in the data set on MN9D cells [4] and in the data set with HepG2 cells [5] was “deplete intracellular ATP levels” each time. Moreover, the “effect on ROS production” value in the data set on MN9D cells [6] is “increase ROS production”. In addition, the “rate of uptake into isolated mitochondria” value in [7] is “faster than that of MPP^+”. For the same compound, in the data set with MN9D or HepG2 cells, the “time to depolarize the mitochondrial membrane by 20–50%” value was determined as 20 min. Further, the “solubility in the incubation media” value in data set [8] is recorded as “low solubility”.
